Experimental data reported in US10172814B2, “Substituted pyridyl-cycloalkyl-carboxylic acids, compositions containing them and medical uses thereof” (BAYER PHARMA AKTIENGESELLSCHAFT, priority 2014, dated 2019).

Each compound was assayed against human PTGES (Homo sapiens (Human), UniProt O14684) (assay: Human PTGES biochemical enzyme inhibition assay (conversion of PGH2 to PGE2, TR-FRET)). Conditions: Enzymatic conversion of PGH2 to PGE2; read-out: Human PTGES IC50.
Procedure, shortened: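 FLAG-tagged human PTGES from Hi-5 insect cells preincubated 15–20 min with compound in pH 7.2 phosphate buffer with 2.5 mM reduced glutathione; reaction started with 8 nM PGH2 final, stopped with SnCl2/KF.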

human PTGES, sequence (O14684 whole entry): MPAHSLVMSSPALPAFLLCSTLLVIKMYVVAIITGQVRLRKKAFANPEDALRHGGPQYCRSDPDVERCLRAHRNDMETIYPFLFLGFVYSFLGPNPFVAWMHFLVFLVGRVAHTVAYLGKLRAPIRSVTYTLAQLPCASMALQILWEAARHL

Row | Structure (SMILES) | IC50
1 | Cc1c(CCC(=O)O)cc(F)cc1NC(=O)C(c1ccc(-c2cncc(Cl)c2)cc1)C1CCCC1 (racemic) [Example 168, (R/S) 3-[3-({[4-(5-chloropyridin-3-yl)phenyl](cyclopentyl)acetyl}amino)-5-fluoro-2-methylphenyl]propanoic acid] | 1190 nM
2 | Cc1ncc(-c2ccc(C(C(=O)Nc3cc(F)cc(CCC(=O)O)c3C)C3CCCC3)cc2)cc1Cl (racemic) [Example 169, (R/S) 3-[3-({[4-(5-chloro-6-methylpyridin-3-yl)phenyl](cyclopentyl)acetyl}amino)-5-fluoro-2-methylphenyl]propanoic acid] | 254 nM
3 | CCOc1cncc(-c2ccc(C(C(=O)Nc3cc(F)cc(CCC(=O)O)c3C)C3CCCC3)cc2)c1 (racemic) [Example 170, (R/S) 3-[3-({[4-(5-ethoxypyridin-3-yl)phenyl](cyclopentyl)acetyl}amino)-5-fluoro-2-methylphenyl]propanoic acid] | 573 nM
4 | Cc1c(NCC(=O)O)cccc1NC(=O)C(c1ccc(-c2cncc(C(F)(F)F)c2)cc1)C1CCCC1 (racemic) [Example 171, (R/S) N-{3-[(cyclopentyl{4-[5-(trifluoromethyl)pyridin-3-yl]phenyl}acetyl)amino]-2-methylphenyl}glycine] | 319 nM
5 | Cc1cc(C(C(=O)Nc2cccc(CCC(=O)O)c2C)C2CCCC2)c(Cl)cc1-c1cncc(Cl)c1 (racemic) [Example 172, (R/S) 3-[3-({[2-chloro-4-(5-chloropyridin-3-yl)-5-methylphenyl](cyclopentyl)acetyl}amino)-2-methylphenyl]propanoic acid] | 1860 nM
6 | Cc1cc(C(C(=O)Nc2cccc(CCC(=O)O)c2C)C2CCCC2)c(Cl)cc1-c1cncc(C(F)(F)F)c1 (racemic) [Example 173, (R/S) 3-(3-{[{2-chloro-5-methyl-4-[5-(trifluoromethyl)pyridin-3-yl]phenyl}(cyclopentyl)acetyl]amino}-2-methylphenyl)propanoic acid] | 1240 nM
7 | Cc1cc(C(C(=O)Nc2cccc(CCC(=O)O)c2C)C2CCCC2)c(Cl)cc1-c1cnc(C)c(Cl)c1 (racemic) [Example 174, (R/S) 3-[3-({[2-chloro-4-(5-chloro-6-methylpyridin-3-yl)-5-methylphenyl](cyclopentyl)acetyl}amino)-2-methylphenyl]propanoic acid] | 444 nM
8 | Cc1c(CCC(=O)O)cccc1NC(=O)C(c1ccc(-c2cncc(C(F)(F)F)c2)c(Cl)c1)C1CCCC1 (racemic) [Example 175, (R/S) 3-[3-({[3-chloro-4-(5-(trifluoromethyl)pyridin-3-yl)phenyl](cyclopentyl)acetyl}amino)-2-methylphenyl]propanoic acid] | 34.6 nM
9 | Cc1ncc(-c2ccc(C(C(=O)Nc3cccc(CCC(=O)O)c3C)C3CCCC3)cc2Cl)cc1Cl (racemic) [Example 176, (R/S) 3-[3-({[3-chloro-4-(5-chloro-6-methylpyridin-3-yl)phenyl](cyclopentyl)acetyl}amino)-2-methylphenyl]propanoic acid] | 198 nM
10 | Cc1c(CCC(=O)O)cccc1NC(=O)C(c1cc(F)c(-c2cncc(Cl)c2)cc1F)C1CCCC1 (racemic) [Example 178, (R/S) 3-[3-({[4-(5-chloropyridin-3-yl)-2,5-difluorophenyl](cyclopentyl)acetyl}amino)-2-methylphenyl]propanoic acid] | 269 nM
11 | Cc1c(CCC(=O)O)cccc1NC(=O)C(c1cc(F)c(-c2cncc(C(F)(F)F)c2)cc1F)C1CCCC1 (racemic) [Example 179, (R/S) 3-{3-[(cyclopentyl{2,5-difluoro-4-[5-(trifluoromethyl)pyridin-3-yl]phenyl}acetyl)amino]-2-methylphenyl}propanoic acid] | 85.2 nM
12 | Cc1ncc(-c2cc(F)c(C(C(=O)Nc3cccc(CCC(=O)O)c3C)C3CCCC3)cc2F)cc1Cl (racemic) [Example 180, (R/S) 3-[3-({[4-(5-chloro-6-methylpyridin-3-yl)-2,5-difluorophenyl](cyclopentyl)acetyl}amino)-2-methylphenyl]propanoic acid] | 66.4 nM
13 | Cc1cc(C(C(=O)Nc2cccc(CCC(=O)O)c2C)C2CCCC2)c(F)cc1-c1cncc(Cl)c1 (racemic) [Example 181, (R/S) 3-[3-({[4-(5-chloropyridin-3-yl)-2-fluoro-5-methylphenyl](cyclopentyl)acetyl}amino)-2-methylphenyl]propanoic acid] | 2300 nM
14 | Cc1cc(C(C(=O)Nc2cccc(CCC(=O)O)c2C)C2CCCC2)c(F)cc1-c1cnc(C)c(Cl)c1 (racemic) [Example 182, (R/S) 3-[3-({[4-(5-chloro-6-methylpyridin-3-yl)-2-fluoro-5-methylphenyl](cyclopentyl)acetyl}amino)-2-methylphenyl]propanoic acid] | 741 nM
15 | Cc1cc(C(C(=O)Nc2cccc(CCC(=O)O)c2C)C2CCCC2)c(F)cc1-c1cncc(C(F)(F)F)c1 (racemic) [Example 183, (R/S) 3-{3-[(cyclopentyl{2-fluoro-5-methyl-4-[5-(trifluoromethyl)pyridin-3-yl]phenyl}acetyl)amino]-2-methylphenyl}propanoic acid] | 1000 nM
16 | Cc1ncc(-c2ccc(C(C(=O)Nc3cccc(CCC(=O)O)c3C)C3CCCC3)cc2)cc1F (racemic) [Example 211, (R/S) 3-[3-({cyclopentyl[4-(5-fluoro-6-methylpyridin-3-yl)phenyl]acetyl}amino)-2-methylphenyl]propanoic acid] | 190 nM
17 | CCC(CC(=O)O)c1cccc(NC(=O)C(c2ccc(-c3cncc(CC(C)C)c3)c(F)c2)C2CCCC2)c1C (single isomer, unassigned) [Example 194, 3-[3-({cyclopentyl[3-fluoro-4-(5-isobutylpyridin-3-yl)phenyl]acetyl}amino)-2-methylphenyl]pentanoic acid, single enantiomer] | 6.82 nM
18 | CCc1cncc(-c2ccc(C(C(=O)Nc3cccc(C(CC)CC(=O)O)c3C)C3CCCC3)cc2F)c1 (single isomer, unassigned) [Example 195, 3-[3-({cyclopentyl[4-(5-ethylpyridin-3-yl)-3-fluorophenyl]acetyl}amino)-2-methylphenyl]pentanoic acid, Single Enantiomer] | 10.5 nM
19 | CCC(CC(=O)O)c1cccc(NC(=O)[C@@H](c2ccc(-c3cncc(CC(F)(F)F)c3)cc2)C2CCCC2)c1C (single isomer, unassigned) [Example 200] | 17.7 nM
20 | CCC(CC(=O)O)c1cccc(NC(=O)C(c2ccc(-c3cnc(C)c(C(F)(F)F)c3)c(F)c2)C2CCCC2)c1C (single isomer, unassigned) [Example 201] | 6.57 nM
21 | CCC(CC(=O)O)c1cccc(NC(=O)[C@@H](c2ccc(-c3cncc(OC(C)C)c3)cc2)C2CCCC2)c1C (single isomer, unassigned) [Example 203] | 16.7 nM
22 | Cc1c(CCC(=O)O)cccc1NC(=O)C(c1ccc(-c2cncc(CC(F)(F)F)c2)c(F)c1)C1CCC1 (single isomer, unassigned) [Example 205, 3-{3-[(cyclobutyl{3-fluoro-4-[5-(2,2,2-trifluoroethyl)pyridin-3-yl]phenyl}acetyl)amino]-2-methylphenyl}propanoic acid, Single Enantiomer] | 66.4 nM
23 | Cc1c(CCC(=O)O)cccc1NC(=O)C(c1ccc(-c2cncc(CC(C)C)c2)c(F)c1)C1CCC1 (single isomer, unassigned) [Example 207, 3-[3-({cyclobutyl[3-fluoro-4-(5-isobutylpyridin-3-yl)phenyl]acetyl}amino)-2-methylphenyl]propanoic acid, Single Enantiomer] | 14.1 nM
24 | Cc1c(NC(=O)C(c2ccc(-c3cncc(C(F)(F)F)c3)cc2)C2CCCC2)cccc1OCC(=O)O (single isomer, unassigned; (+)) [Example 35, (+) {3-[(Cyclopentyl{4-[5-(trifluoromethyl)pyridin-3-yl]phenyl}acetyl)amino]-2-methylphenoxy}acetic acid] | 3730 nM
25 | Cc1c(CCC(=O)O)cccc1NC(=O)C(c1ccc(-c2cncc(C(F)(F)F)c2)c(F)c1)C1CCCC1 (single isomer, unassigned; (+)) [Example 49, (+) 3-{3-[(Cyclopentyl{3-fluoro-4-[5-(trifluoromethyl)pyridin-3-yl]phenyl}acetyl)amino]-2-methylphenyl}propanoic acid] | 530 nM
26 | Cc1c(CCC(=O)O)cccc1NC(=O)C(c1ccc(-c2cncc(C(F)(F)F)c2)cc1)C1CCC1 (single isomer, unassigned; (+)) [Example 56, (+) 3-{3-[(Cyclobutyl{4-[5-(trifluoromethyl)pyridin-3-yl]phenyl}acetyl)amino]-2-methylphenyl}propanoic acid] | 7520 nM
27 | Cc1c(CCC(=O)O)cccc1NC(=O)C(c1ccc(-c2ccc(C(F)(F)F)nc2)cc1)C1CCCC1 (single isomer, unassigned; (-)) [Example 5, (−) 3-{3-[(Cyclopentyl{4-[6-(trifluoromethyl)pyridin-3-yl]phenyl}acetyl)amino]-2-methylphenyl}propanoic acid] | 795 nM
28 | Cc1c(NC(=O)C(c2ccc(-c3cncc(C(F)(F)F)c3)cc2)C2CCCC2)cccc1OCC(=O)O (single isomer, unassigned; (-)) [Example 34, (−) {3-[(Cyclopentyl{4-[5-(trifluoromethyl)pyridin-3-yl]phenyl}acetyl)amino]-2-methylphenoxy}acetic acid] | 9.85 nM
29 | Cc1c(NC(=O)C(c2ccc(-c3cncc(C(F)(F)F)c3)c(F)c2)C2CCCC2)cccc1N(C)CC(=O)O (single isomer, unassigned; (-)) [Example 188, (−) N-{3-[(cyclopentyl{3-fluoro-4-[5-(trifluoromethyl)pyridin-3-yl]phenyl}acetyl)amino]-2-methylphenyl}-N-methylglycine, Single Enantiomer] | 24.2 nM
